Test results from US5863916A, “8-aza, 6-aza and 6,8-diaza-1,4-dihydroquinoxaline-2,3-diones and the use thereof as antagonists for the glycine/NMDA receptor” (priority 1997, dated 1999).

What was measured:
[1] = test system: glycine binding site of the NMDA receptor; conditions: cited from earlier work
[2] = target: glycine/NMDA receptor; assay: glycine/NMDA receptor affinity (1 μM glycine-stimulated [3H]-MK801 binding, rat brain membranes; also estimated by electrophysiology)
Procedure: The assay is conducted using rat brain membrane homogenates that are enriched in NMDA receptors. The membranes are prepared as follows. Frozen rat brains (obtained from Pel-Freez, Rogers, Ark.) are homogenized in 15 volumes (w/v) of ice cold 0.32M sucrose. The homogenate is spun at 1,000×g for ten minutes. The supernatant is collected and spun for 20 minutes at 44,000×g. The pellet is suspended in 15 volumes of water (relative to original brain weight). The homogenate is again spun at 44,000×g for twenty minutes. The pellet is resuspended in 5 volumes of water and the suspension is freeze-thawed 2 times. After the final thaw cycle, the suspension is brought to 15 volumes with water and spun at 44,000×g for twenty minutes. The pellet is resuspended in 5 volumes of ice-cold 10 mM HEPES, and is titrated to pH 7.4 with KOH containing 0.04% Triton X-100. […] The volume is then brought to 15 with ice-cold 10 mM HEPES, pH 7.4, and spun/washed three times with spins of 44,000×g between washes. The final pellet is suspended in three volumes of 50 mM HEPES, pH 7.4 and the protein concentration is determined with a standard dye-binding protein assay (Bio-Rad, Richmond, Calif.). The suspension is stored at -80° C. until used. Only HPLC grade water is used for all buffers and suspensions/washings. The extensive washings are necessary to remove as much endogenous glycine from the membrane preparation as possible.
Nonspecific binding is defined as the […] presence of PCP (final concentration: 100 μM). […] A 500 nM concentration (final) of 5,7-dichlorokynurenic (DCK) acid is added to all assay tubes. This concentration of the glycine antagonist DCK "buffers" most of the residual endogenous glycine that is not removed by the extensive washing steps that are carried out during the membrane preparation procedure.
Filtration is accomplished using a Brandel 48 well cell harvester. Filtered membranes are washed three times with 3 mL each of ice cold buffer. Filters are transferred to scintillation vials and 5 mL of scintillation cocktail is added. The vials are shaken overnight and the radioactivity is counted by liquid scintillation spectroscopy. The assays are done in triplicate and all experiments are conducted at least three times.
(§1) The binding affinities at NMDA receptor glycine sites also were estimated by electrophysiological assay either using cloned rat NMDA receptors expressed in Xenopus oocytes, or non-NMDA receptors expressed in oocytes by whole rat brain poly(A)^+ RNA. […] For NMDA receptors Kb s were approximated by averaging values at three subtype combinations (NR1A/NR2A, NR1A/NR2B, and NR1A/NR2C).

[3] = test system: MES-induced seizures; assay: anticonvulsant activity, maximum electroshock-induced seizure (MES) experiment in mice; assay type: in vivo, mouse; conditions: for ED50: Mus musculus, iv, read-out: ED50 as an anticonvulsant in MES experiment
Procedure: The anticonvulsant activity of the glycine antagonists may be assessed in the maximum electroshock-induced seizure (MES) assay in mice. […] The seizure stimulus parameters were: 50 mA, 60 Hz, rectangular pulse, width 0.8 msec, duration 200 msec. Tonic hind limb extension observed after application of the electrical stimulus was recorded as occurrence of seizure. The drug was applied i.v. as an aqueous basic solution.

[4] = test system: MES-induced tonic clonic seizures; assay: Example 35: time course and potency in maximum electroshock (MES) model, i.v., mice; assay type: in vivo, Swiss-Webster mouse; conditions: for protection of mice at the lowest dose: 2 minutes; for animals showing no tonic seizures: 2 minutes after i.v. 5 mg/kg (6-chloro-8-(N-oxy)aza) or 10 mg/kg (6-chloro-7-methyl-8-(N-oxy)aza); for mice protected against seizures: 15 minutes after i.v. 5 mg/kg (6-chloro-8-(N-oxy)aza) or 10 mg/kg (6-chloro-7-methyl-8-(N-oxy)aza); for ED50: Mus musculus, iv, 2 min, Litchfield and Wilcoxon, read-out: ED50, inhibition of MES-induced seizures; for ED50 / 95% confidence limits of ED50 / inhibition of MES-induced seizures / time of maximal anti-MES effect: i.v.; for ED50 / 95% confidence limits of ED50: 2 minutes post injection; for efficacy in inhibiting MES-induced tonic seizures over time: i.v. time course, 2-60 minutes; for inhibition of MES-induced seizures: dose dependence; for time of maximal anti-MES effect: post-injection
Source text: The objectives of the studies were to determine the time of maximal effect and potency for compounds 6-chloro-8-(N-oxy)aza-1,4-dihydroquinoxaline-2,3-dione and 6-chloro-7-methyl-8-(N-oxy)aza-1,4-dihydroquinoxaline-2,3-dione in the inhibition of maximal electroshock (MES)-induced tonic clonic seizures following intravenous (i.v.) administration in mice.
The time-course study involved a one-factor, between groups design in which animals were divided into groups based on the time between administration of 6-chloro-8-(N-oxy)aza-1,4-dihydroquinoxaline-2,3-dione and 6-chloro-7-methyl-8-(N-oxy)aza-1,4-dihydroquinoxaline-2,3-dione and the MES stimulus. Similarly, the potency study involved a one-factor, between group design in which animals were divided into groups based on drug dose. Each group in both studies consisted of 8 animals.
6-Chloro-8-(N-oxy)aza-1,4-dihydroquinoxaline-2,3-dione and 6-chloro-7-methyl-8-(N-oxy)aza-1,4-dihydroquinoxaline-2,3-dione were dissolved in 0.05M Tris (J. T. Baker) at concentrations of 5 mg/mL and 2.5 mg/mL, respectively.
Experiments were conducted with Swiss-Webster male mice (Simonsen Lab. Inc.). Mice were 5-6 weeks old and weighed 18-24 g upon arrival in the laboratory. In the time course study, mice were treated with an i.v. injection of 6-chloro-8-(N-oxy)aza-1,4-dihydroquinoxaline-2,3-dione (5 mg/kg) or 6-chloro-7-methyl-8-(N-oxy)aza-1,4-dihydroquinoxaline-2,3-dione(10 mg/kg) or vehicle. Mice were tested at 2, 15, 30, or 60 minutes after vehicle or drug administration. […] The electroshock device was a Ugo Basile ECT Unit 7801 (Varese, Italy; Model 24093). The electroshock characteristics were as follows: 50 mA, 60 pulses per second, […], and a 0.2 second train length. […] Tonic seizures were defined as the tonic extension of the forelimbs and hindlimbs. […] Therefore, the result from each animal was an all-or-none phenomenon with either a seizure present or absent following the shock administration. The time point at which 6-chloro-8-(N-oxy)aza-1,4-dihydroquinoxaline-2,3-dione and 6-chloro-7-methyl-8-(N-oxy)aza-1,4-dihydroquinoxaline-2,3-dione produced a maximal response was determinated by analyzing the graphical results. The dose at which 50% of the animals were protected against MES-induced seizures (ED50) was calculated by Litchfield and Wilcoxon Method (Pharm/PCS R. J. Tallarida & R. B. Murray Version 4.2).

[5] = test system: focal cerebral ischemia (MCA occlusion); assay: rat model of permanent focal cerebral ischemia (MCA occlusion), infarct volume; assay type: in vivo, Sprague-Dawley rat
Procedure: Male Sprague-Dawley rats ([…]) were intubated and maintained under anesthesia with ±2% of halothane. Body temperature was maintained at 37.5° C. during surgery by means of a warming pad and a rectal probe connected to the control unit. The common carotid arteries (CCA) were isolated and a loose silk ligature was placed around each CCA. A vertical skin incision was made between the left orbit and the auditory canal, posterior part of zygoma removed, and a small opening (2.0/2.5 mm) drilled dorsorostrally to the foramen ovale under constant saline irrigation. The dura was opened with a microsurgical hook and the brain gently retracted with a fine spatula to expose the bifurcation of the internal carotid artery and the middle cerebral artery. The ipsilateral CCA was ligated and the MCA coagulated from its origin to the olfactory tract. Two hours after MCA occlusion, the clip from the contralateral CCA was removed. […]
Brains were sliced into 2 mm blocks and stained with tetrazolium red (2,3,5-triphenyl tetrazolium chloride). The areas of brain damage were assessed using an image analyzer (Image-1, Universal Imaging Corporation, PA) to determine the volume of cortical and subcortical infarction by integration of areas and the distance between each level.

[6] = blood-brain-barrier crossing inferred from Ki and MES ED50; assay type: in vivo, mouse
[7] = target: non-NMDA receptor; assay: non-NMDA receptor affinity; assay type: binding, rat
Procedure: (§2) Filtered membranes are washed three times with 3 mL each of ice cold buffer.
as §2, §1

[8] = test system: brain ischemia / neurons; conditions: cited from earlier work
[9] = test system: PCP-like behavioral effects; conditions: in vivo; cited from earlier work
[10] = test system: katalepsy; conditions: pigeons; cited from earlier work
[11] = 20 mg/kg bolus + 14 mg/kg/h for 22 h, 30 min after MCA occlusion

O=C(O)c1cc(O)c2c(Cl)cc(Cl)cc2n1 [5,7-dichlorokynurenic acid]
receptor binding affinity in vitro [1]: relatively high receptor binding affinity in vitro

O=c1[nH]c2cc(Cl)c(Cl)[n+]([O-])c2[nH]c1=O [6,7-Dichloro-8(N-oxy)aza-1,4-dihydroquinoxaline-2,3-dione]
Ki [2]: 100 nM
ED50 [3]: 7.5 mg/kg

O=c1[nH]c2cc(Cl)c(Cl)c([N+](=O)[O-])c2[nH]c1=O [6,7-dichloro-5-nitro-1,4-dihydroquinoxaline-2,3-dione, reference compound]
Ki [2]: 3.3 nM
ED50 as an anticonvulsant in MES experiment [3]: 4 to 5 mg/kg

O=c1[nH]c2cc(Br)c[n+]([O-])c2[nH]c1=O [6-Bromo-8-(N-oxy)aza-1,4-dihydroquinoxaline-2,3-dione]
Ki [2]: 1000 nM
ED50 [3]: 1 to 1.5 mg/kg

Cc1c(Cl)cc2[nH]c(=O)c(=O)[nH]c2[n+]1[O-] [6-Chloro-7-methyl-8-(N-oxy)aza-1,4-dihydroquinoxaline-2,3-dione]
Ki [2]: 50 nM
ED50 [3]: 7 mg/kg
protection of mice at the lowest dose ([4]; 4 mg/kg i.v.): 12.5%
animals showing no tonic seizures [4]: 8/8
mice protected against seizures [4]: 3/8
ED50 [4]: 6.71 mg/kg
efficacy in inhibiting MES-induced tonic seizures over time [4]: decreased over one hour
95% confidence limits of ED50 [4]: 5.48 to 8.22 mg/kg
inhibition of MES-induced seizures [4]: dose dependently, inhibited MES-induced seizures
time of maximal anti-MES effect [4]: 2 min

[O-][n+]1cc(Cl)cc2nc(O)c(O)nc21 [6-Chloro-8-(N-oxy)aza-1,4-dihydroquinoxaline-2,3-dione]
Ki [2]: 600 nM
ED50 [3]: 1 to 1.5 mg/kg
protection of mice at the lowest dose ([4]; 0.5 mg/kg i.v.): 25%
animals showing no tonic seizures [4]: 8/8
mice protected against seizures [4]: 4/8
ED50 [4]: 1.26 mg/kg
efficacy in inhibiting MES-induced tonic seizures over time [4]: decreased over one hour
95% confidence limits of ED50 [4]: 0.94 to 1.67 mg/kg
inhibition of MES-induced seizures [4]: dose dependently, inhibited MES-induced seizures
time of maximal anti-MES effect [4]: 2 min
protection at the lower dose ([5]; 10 mg/kg bolus + 7 mg/kg/h for 22 h, immediately after MCA occlusion): no protection
reduction in cortical infarct volume [5, 11]: 70%
reduction in subcortex infarct volume [5, 11]: 35%
reduction in cortical infarct volume ([5]; 20 mg/kg bolus + 14 mg/kg/h for 22 h i.v., immediately after MCA occlusion): 67%
neuroprotection ([5]; rat model of focal ischemia): significant neuroprotection
blood-brain-barrier crossing relative to 6,7-dichloro-5-nitro-1,4-dihydroquinoxaline-2,3-dione [6]: about 1000 times

Cc1cc2[nH]c(=O)c(=O)[nH]c2[n+]([O-])c1 [6-Methyl-8-(N-oxy)aza-1,4-dihydroquinoxaline-2,3-dione]
Ki [2]: 2400 nM
ED50 [3]: 1 to 1.5 mg/kg

O=C(O)c1cc(O)c2ccc(Cl)cc2n1 [7-Cl-kynurenic acid]
receptor binding affinity in vitro [1]: relatively high receptor binding affinity in vitro

O=c1[nH]c2cc(Cl)cnc2[nH]c1=O [Compound 5, 6-Chloro-8-aza-1,4-dihydroquinoxaline-2,3-dione]
activity relative to corresponding QX [2]: about as active as the corresponding 6-chloro-QX

O=c1[nH]c2cc(Cl)c(Cl)nc2[nH]c1=O [Compound 6, 6,7-Dichloro-8-aza-1,4-dihydroquinoxaline-2,3-dione]
Ki [2]: ~200 nM

Cc1nc2[nH]c(=O)c(=O)[nH]c2cc1Br [Compound 8, 6-Bromo-7-methyl-8-aza-1,4-dihydroquinoxaline-2,3-dione]
Ki [2]: ~200 nM

O=c1[nH]c2ccncc2[nH]c1=O [Compound 11, 6-Aza-1,4-dihydroquinoxaline-2,3-dione]
activity relative to corresponding QX [2]: about as active as QX

O=c1[nH]c2cncnc2[nH]c1=O [Compound 13, 6,8-Diaza-1,4-dihydroquinoxaline-2,3-dione]
activity relative to corresponding QX [2]: about as active as QX

O=c1[nH]c2cc([N+](=O)[O-])c[n+]([O-])c2[nH]c1=O [Compound 64, 7-Nitro-5-(N-oxy)aza-1,4-dihydroquinoxaline-2,3-dione]
Ki [2]: 130 nM
Ki [7]: 340 nM
ED50 [3]: 3 to 4 mg/kg

NC1CCN(O)C1=O (stereo not shown) [HA-966]
agonist character [1]: partial agonist
receptor binding affinity in vitro [1]: micromolar affinity for the glycine binding site

c1ccc(C2(N3CCCCC3)CCCCC2)cc1 [PCP, phencyclidine]
neuroprotective efficacy [8]: neuroprotective efficacy both in vitro and in vivo
PCP-like behavioral side effects [9]: behavioral excitation (hyperlocomotion) in rodents
katalepsy [10]: characteristic katalepsy in pigeons

COc1ccc2c(c1)[C@]13CCCC[C@@H]1[C@H](C2)N(C)CC3 [dextromethorphan]
neuroprotective efficacy [8]: neuroprotective efficacy both in vitro and in vivo

O=C(O)c1cc2ccccc2[nH]1 [indole-2-carboxylic acid]
receptor binding affinity in vitro [1]: relatively high receptor binding affinity in vitro

CNC1(c2ccccc2Cl)CCCCC1=O (stereo not shown) [ketamine]
neuroprotective efficacy [8]: neuroprotective efficacy both in vitro and in vivo
